Target: T1, CRTH2 (Homo sapiens, UniProt Q9Y5Y4)
T1 construct: expressed in transfected cells; host or cells: CHO cells
T1 sequence (Q9Y5Y4 1-395): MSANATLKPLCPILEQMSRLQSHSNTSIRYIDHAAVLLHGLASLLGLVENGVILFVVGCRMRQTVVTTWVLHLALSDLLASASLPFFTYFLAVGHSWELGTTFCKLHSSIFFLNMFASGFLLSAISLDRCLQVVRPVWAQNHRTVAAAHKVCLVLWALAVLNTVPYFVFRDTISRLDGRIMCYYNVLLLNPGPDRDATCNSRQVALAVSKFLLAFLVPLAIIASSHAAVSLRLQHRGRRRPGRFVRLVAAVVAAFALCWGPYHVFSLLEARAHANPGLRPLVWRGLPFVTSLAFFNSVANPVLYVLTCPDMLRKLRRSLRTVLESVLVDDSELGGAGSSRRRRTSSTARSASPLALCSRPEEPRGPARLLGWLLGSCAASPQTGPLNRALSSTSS
Experiment: FRET based competitive immunoassay (cAMP) in CRTH2 expressing CHO cells
Type: cell-based
Conditions: CRTH2 expressing CHO cells incubated with forskolin and PGD2; Eu3+ cryptate-labeled anti-cAMP and d2-labeled cAMP
Experimental: FRET Assay: To evaluate potency compounds were tested in a FRET based competitive immunoassay in which CRTH2 expressing CHO cells were incubated in the presence of forskolin and PGD2 along with Eu3+ cryptate-labeled anti-cAMP and d2-labeled cAMP.

Row | Structure (SMILES) | IC50 [nM]
1 | Cc1c(Cc2ccc(=O)n(Cc3cc(F)cc(F)c3)c2)c2cc(F)ccc2n1CC(=O)O [Example 36, 2-(3-((1-(3,5-Difluorobenzyl)-6-oxo-1,6-dihydropyridin-3-yl)methyl)-5-fluoro-2-methyl-1H-indol-1-yl)acetic acid] | 2
2 | Cc1c(-c2ccc(=O)n(Cc3cccc(C(F)(F)F)c3)n2)c2cc(F)ccc2n1CC(=O)O [Example 218, 2-(5-fluoro-2-methyl-3-(6-oxo-1-(3-(trifluoromethyl)benzyl)-1,6-dihydropyridazin-3-yl)-1H-indol-1-yl)acetic acid] | 24
3 | Cc1c(-c2cn(CC(O)(C(F)(F)F)C(F)(F)F)c(=O)c3ccccc23)c2cc(F)ccc2n1CC(=O)O [Example 255, 2-(5-fluoro-2-methyl-3-(1-oxo-2-(3,3,3-trifluoro-2-hydroxy-2-(trifluoro-methyl)propyl)-1,2-dihydroisoquinolin-4-yl)-1H-indol-1-yl)acetic acid] | 55
4 | Cc1c(-c2ccc(OC(C)C)nc2)c2cc(F)ccc2n1CC(=O)O [Example 277] | 71
5 | Cc1c(Cc2ccc(=O)n(Cc3ccccc3)c2)c2ccccc2n1CC(=O)O [Example 348, {3-[(1-benzyl-6-oxo-1,6-dihydropyridin-3-yl)methyl]-2-methyl-1H-indol-1-yl}acetic acid] | 82
6 | Cc1c(Cc2cn(Cc3ccccc3)c(=O)c3ccccc23)c2cc(Cl)ccc2n1CC(=O)O [Example 87, 2-(3-((2-benzyl-1-oxo-1,2-dihydroisoquinolin-4-yl)methyl)-5-chloro-2-methyl-1H-indol-1-yl)acetic acid] | 210
7 | Cc1ccc2c(c1)c(-c1nn(Cc3ccccc3)c(=O)c3ccccc13)c(C)n2CC(=O)O [Example 192, 2-(3-(3-Benzyl-4-oxo-3,4-dihydrophthalazin-1-yl)-2,5-dimethyl-1H-indol-1-yl)acetic acid] | 4
8 | Cc1c(-c2cn(CC(C)(C)O)c(=O)c3ccccc23)c2cc(F)ccc2n1CC(=O)O [Example 254, 2-(5-fluoro-3-(2-(2-hydroxy-2-methylpropyl)-1-oxo-1,2-dihydroisoquinolin-4-yl)-2-methyl-1H-indol-1-yl)acetic acid] | 15
9 | CCC(=O)Cn1nc(-c2c(C)n(CC(=O)O)c3ccc(F)cc23)c2ccccc2c1=O [Example 133, 2-(5-fluoro-2-methyl-3-(4-oxo-3-(2-oxobutyl)-3,4-dihydrophthalazin-1-yl)-1H-indol-1-yl)acetic acid] | 8
10 | Cc1c(-c2ccc(=O)n(Cc3ccccc3)n2)c2cc(F)cc(F)c2n1CC(=O)O [Example 233, 2-(3-(1-benzyl-6-oxo-1,6-dihydropyridazin-3-yl)-5,7-difluoro-2-methyl-1H-indol-1-yl)acetic acid] | 147
11 | Cc1c(-c2ccc(=O)n(CCC(F)(F)F)c2)c2cc(F)ccc2n1CC(=O)O [Example 307, 2-(5-fluoro-2-methyl-3-(6-oxo-1-(3,3,3-trifluoropropyl)-1,6-dihydropyridin-3-yl)-1H-indol-1-yl)acetic acid] | 28
12 | Cc1c(Cc2nn(Cc3ccccc3)c(=O)c3ccccc23)c2cc(Cl)ccc2n1CC(=O)O [Example 84, 2-(3-((3-Benzyl-4-oxo-3,4-dihydrophthalazin-1-yl)methyl)-5-chloro-2-methyl-1H-indol-1-yl)acetic acid] | 28
13 | Cc1c(-c2ccc(=O)n(Cc3ccccc3)c2)c2cc(F)ccc2n1CC(=O)O [Example 265, 2-(3-(1-benzyl-6-oxo-1,6-dihydropyridin-3-yl)-5-fluoro-2-methyl-1H-indol-1-yl)acetic acid] | 5
14 | Cc1c(-c2ccc(=O)n(CC(C)C)c2)c2ccccc2n1CC(=O)O [Example 287, 2-(3-(1-isobutyl-6-oxo-1,6-dihydropyridin-3-yl)-2-methyl-1H-indol-1-yl)-acetic acid] | 305
15 | Cc1c(-c2ccc(=O)n(Cc3ccccc3C(F)(F)F)n2)c2cc(Cl)ccc2n1CC(=O)O [Example 211, 2-(5-chloro-2-methyl-3-(6-oxo-1-(2-(trifluoromethyl)benzyl)-1,6-dihydro-pyridazin-3-yl)-1H-indol-1-yl)acetic acid] | 22
16 | Cc1c(-c2ccc(=O)n(CC(F)(F)F)n2)c2cc(F)ccc2n1CC(=O)O [Example 162, 2-(5-Fluoro-2-methyl-3-(6-oxo-1-(2,2,2-trifluoroethyl)-1,6-dihydropyridazin-3-yl)-1H-indol-1-yl)acetic acid] | 462
17 | Cc1c(-c2nn(CC3CC3)c(=O)c3ccccc23)c2cc(Cl)ccc2n1CC(=O)O [Example 108, 2-(5-chloro-3-(3-(cyclopropylmethyl)-4-oxo-3,4-dihydrophthalazin-1-yl)-2-methyl-1H-indol-1-yl)acetic acid] | 22

Row | Structure (SMILES) | IC50 [nM]
18 | Cc1c(Cc2ccc(=O)n(Cc3ccc(F)c(F)c3)c2)c2cc(F)ccc2n1CC(=O)O [Example 33, 2-(3-((1-(3,4-difluorobenzyl)-6-oxo-1,6-dihydropyridin-3-yl)methyl)-5-fluoro-2-methyl-1H-indol-1-yl)acetic acid] | 11
19 | Cc1c(Cc2ccc(=O)n(Cc3ccccc3F)c2)c2cc(F)ccc2n1CC(=O)O [Example 32, 2-(5-Fluoro-3-((1-(2-fluorobenzyl)-6-oxo-1,6-dihydropyridin-3-yl)methyl)-2-methyl-1H-indol-1-yl)acetic acid] | 8
20 | Cc1c(Cc2ccc(=O)n(Cc3ccc(C(C)(C)O)cc3)n2)c2cc(F)ccc2n1CC(=O)O [Example 238, 2-(5-fluoro-3-((1-(4-(2-hydroxypropan-2-yl)benzyl)-6-oxo-1,6-dihydropyridazin-3-yl)methyl)-2-methyl-1H-indol-1-yl)acetic acid] | 13
21 | Cc1c(-c2ccc(=O)n(Cc3c(F)cccc3F)c2)c2ccccc2n1CC(=O)O [Example 285, 2-(3-(1-(2,6-difluorobenzyl)-6-oxo-1,6-dihydropyridin-3-yl)-2-methyl-1H-indol-1-yl)acetic acid] | 23
22 | Cc1c(-c2ccc(=O)n(Cc3ccc(F)cc3)n2)c2ccccc2n1CC(=O)O [Example 189, 2-(3-(1-(4-fluorobenzyl)-6-oxo-1,6-dihydropyridazin-3-yl)-2-methyl-1H-indol-1-yl)acetic acid] | 45
23 | COC(=O)Cn1c(C)c(-c2ccc(=O)n(Cc3ccc(F)cc3F)n2)c2ccccc21 [Example 186, methyl 2-(3-(1-(2,4-difluorobenzyl)-6-oxo-1,6-dihydropyridazin-3-yl)-2-methyl-1H-indol-1-yl)acetate] | 150
24 | Cc1c(Cc2ccc(=O)n(Cc3ccc(F)cc3F)c2)c2ccccc2n1CC(=O)O [Example 21, 2-(3-((1-(2,4-Difluorobenzyl)-6-oxo-1,6-dihydropyridin-3-yl)methyl)-2-methyl-1H-indol-1-yl)acetic acid] | 18
25 | Cc1c(-c2ccc(=O)n(CCOc3ccc(Cl)cc3)n2)c2cc(F)ccc2n1CC(=O)O [Example 152, 2-(3-(1-(2-(4-chlorophenoxy)ethyl)-6-oxo-1,6-dihydropyridazin-3-yl)-5-fluoro-2-methyl-1H-indol-1-yl)acetic acid] | 12
26 | Cc1c(-c2cn(C(C)C)c(=O)c3c2CCCC3)c2cc(F)ccc2n1CC(=O)O [Example 91, 2-(5-fluoro-3-(2-isopropyl-1-oxo-1,2,5,6,7,8-hexahydroisoquinolin-4-yl)-2-methyl-1H-indol-1-yl)acetic acid] | 107
27 | Cc1c(-c2nn(Cc3cccc(F)c3F)c(=O)c3ccccc23)c2cc(Cl)ccc2n1CC(=O)O [Example 97, 2-(5-chloro-3-(3-(2,3-difluorobenzyl)-4-oxo-3,4-dihydrophthalazin-1-yl)-2-methyl-1H-indol-1-yl)acetic acid] | 7
28 | Cc1c(-c2ccc(=O)n(Cc3cccc(F)c3F)c2)c2cc(F)ccc2n1Cc1nn[nH]n1 [Example 311, 5-(1-((2H-tetrazol-5-yl)methyl)-5-fluoro-2-methyl-1H-indol-3-yl)-1-(2,3-difluoro-benzyl)pyridin-2(1H)-one] | > 1000
29 | Cc1c(Cc2ccc(=O)n(Cc3ccc(F)cc3)n2)c2ccccc2n1CC(=O)O [Example 76, 2-(3-((1-(4-fluorobenzyl)-6-oxo-1,6-dihydropyridazin-3-yl)methyl)-2-methyl-1H-indol-1-yl)acetic acid] | 16
30 | Cc1c(-c2nn(Cc3nc4cc(Cl)ccc4s3)c(=O)c3ccccc23)c2cc(F)ccc2n1CC(=O)O [Example 208, 2-(3-(3-((5-chlorobenzo[d]thiazol-2-yl)methyl)-4-oxo-3,4-dihydrophthalazin-1-yl)-5-fluoro-2-methyl-1H-indol-1-yl)acetic acid] | 3
31 | Cc1c(Cc2ccc(=O)n(Cc3ccc(F)cc3)c2)c2cc(F)ccc2n1CC(=O)O [Example 41, 2-(5-Fluoro-3-((1-(4-fluorobenzyl)-6-oxo-1,6-dihydropyridin-3-yl)methyl)-2-methyl-1H-indol-1-yl)acetic acid] | 3
32 | Cc1c(-c2ccc(=O)n(Cc3cccnc3)c2)c2cc(F)ccc2n1CC(=O)O [Example 315, 2-(5-fluoro-2-methyl-3-(6-oxo-1-(pyridin-3-ylmethyl)-1,6-dihydropyridin-3-yl)-1H-indol-1-yl)acetic acid] | 32
33 | Cc1c(-c2ccc(=O)n(Cc3ccccc3)c2)c2cc(F)ccc2n1CC(=O)NS(=O)(=O)C1CC1 [Example 319, 2-(3-(1-Benzyl-6-oxo-1,6-dihydropyridin-3-yl)-5-fluoro-2-methyl-1H-indol-1-yl)-N-(cyclo-propyl-sulfonyl)acetamide] | > 1000

Source: patent US20110105509A1 (Wyeth, LLC, priority 2009, published 2011)
